Experiment [1] can be described thus: DRUGMATRIX: Calcium Channel Type L, Dihydropyridine radioligand binding (ligand: [3H] Nitrendipine). The format is cell membranes, Rattus norvegicus, Wistar, Cerebral cortex, Membrane. The conditions noted are these: Not Active = under 50% inhibition at 10 µM.
The target of experiment [2] is T1, Polyunsaturated fatty acid lipoxygenase ALOX15 (Oryctolagus cuniculus, UniProt P12530).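 Also: inhibition of 15-lipoxygenase enzyme activity measured with linoleic acid as the substrate; in other assays of this panel Not Active means under 50% inhibition at 10 µM.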
T1 sequence (P12530 whole entry): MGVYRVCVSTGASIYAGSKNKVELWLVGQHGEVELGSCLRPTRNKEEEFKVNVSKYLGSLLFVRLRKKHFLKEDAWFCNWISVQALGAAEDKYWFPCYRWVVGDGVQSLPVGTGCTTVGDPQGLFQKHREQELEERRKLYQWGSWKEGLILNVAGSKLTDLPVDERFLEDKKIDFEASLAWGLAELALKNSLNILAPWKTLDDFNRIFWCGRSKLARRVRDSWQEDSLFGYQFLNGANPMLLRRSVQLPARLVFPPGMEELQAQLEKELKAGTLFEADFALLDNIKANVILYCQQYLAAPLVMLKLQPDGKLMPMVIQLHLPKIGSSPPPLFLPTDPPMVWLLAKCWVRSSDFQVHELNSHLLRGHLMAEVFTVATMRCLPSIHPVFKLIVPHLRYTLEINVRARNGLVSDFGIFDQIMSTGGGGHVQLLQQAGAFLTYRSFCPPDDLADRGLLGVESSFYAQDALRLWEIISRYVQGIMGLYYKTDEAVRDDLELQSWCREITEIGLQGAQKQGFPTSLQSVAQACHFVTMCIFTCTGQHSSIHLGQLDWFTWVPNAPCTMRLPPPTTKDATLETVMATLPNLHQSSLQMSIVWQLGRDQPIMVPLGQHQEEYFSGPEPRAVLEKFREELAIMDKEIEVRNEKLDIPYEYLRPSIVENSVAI
Nature of the experiment: biochemical. It counts as tissue-based, Reticulocytes. The conditions noted are these: reticulocytes.

The target in experiment [3] is 5-hydroxytryptamine receptor 4 (Cavia porcellus, UniProt O70528). The format is cell membranes, Dunkin-Hartley, Striatum, Membrane. Also: in other assays of this panel Not Active means under 50% inhibition at 10 µM.
Chain of 5-hydroxytryptamine receptor 4 (O70528 whole entry): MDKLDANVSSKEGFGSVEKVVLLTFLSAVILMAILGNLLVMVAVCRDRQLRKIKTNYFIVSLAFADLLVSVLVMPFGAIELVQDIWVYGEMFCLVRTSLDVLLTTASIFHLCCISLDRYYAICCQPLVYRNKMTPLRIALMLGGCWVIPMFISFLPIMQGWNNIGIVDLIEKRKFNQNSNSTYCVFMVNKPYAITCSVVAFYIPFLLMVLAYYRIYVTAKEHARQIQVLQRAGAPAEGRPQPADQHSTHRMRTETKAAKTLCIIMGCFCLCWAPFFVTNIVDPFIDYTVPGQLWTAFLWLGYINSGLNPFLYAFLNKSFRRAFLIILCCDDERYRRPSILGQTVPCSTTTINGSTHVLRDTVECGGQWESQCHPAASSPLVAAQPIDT
Experiment [4] deals with T2, Interstitial collagenase (Homo sapiens, UniProt P03956).
T2 sequence (P03956 whole entry): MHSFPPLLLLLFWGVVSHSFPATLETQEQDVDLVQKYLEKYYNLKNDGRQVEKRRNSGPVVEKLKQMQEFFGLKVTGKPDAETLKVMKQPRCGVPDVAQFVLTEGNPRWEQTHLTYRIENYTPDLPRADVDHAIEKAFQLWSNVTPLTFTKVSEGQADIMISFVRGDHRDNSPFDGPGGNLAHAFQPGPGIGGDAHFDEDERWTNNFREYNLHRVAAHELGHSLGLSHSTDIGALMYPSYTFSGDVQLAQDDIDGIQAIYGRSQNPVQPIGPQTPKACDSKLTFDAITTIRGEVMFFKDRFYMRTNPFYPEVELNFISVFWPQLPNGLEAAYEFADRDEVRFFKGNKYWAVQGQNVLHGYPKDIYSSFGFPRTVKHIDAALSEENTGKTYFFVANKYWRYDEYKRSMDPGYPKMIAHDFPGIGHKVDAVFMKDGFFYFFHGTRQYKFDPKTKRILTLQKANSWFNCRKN
The format is tissue-based, Rheumatoid synovial fibroblasts.

The target in experiment [5] is Glycine receptor (Rattus norvegicus, UniProt P22771+P24524+P07727+P20781). The format is cell membranes, Wistar, Spinal cord, Membrane. Also: in other assays of this panel Not Active means under 50% inhibition at 10 µM.
Experiment [6] concerns the target T3, Neuropeptide Y receptor type 1 (Homo sapiens, UniProt P25929). Also: in other assays of this panel Not Active means under 50% inhibition at 10 µM.
T3 sequence (P25929 whole entry): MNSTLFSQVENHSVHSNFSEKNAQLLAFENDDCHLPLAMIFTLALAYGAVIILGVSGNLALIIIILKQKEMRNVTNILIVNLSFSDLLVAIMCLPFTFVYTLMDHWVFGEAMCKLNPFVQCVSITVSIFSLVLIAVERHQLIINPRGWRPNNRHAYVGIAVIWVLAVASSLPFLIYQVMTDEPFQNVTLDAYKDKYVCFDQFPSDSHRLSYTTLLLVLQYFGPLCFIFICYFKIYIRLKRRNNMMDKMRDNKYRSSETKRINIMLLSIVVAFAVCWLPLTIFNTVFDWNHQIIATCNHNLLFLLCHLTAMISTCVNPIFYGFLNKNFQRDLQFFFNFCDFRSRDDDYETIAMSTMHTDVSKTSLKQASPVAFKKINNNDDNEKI
It counts as cell membranes, Membrane. The conditions noted are these: sk-n-mc.

Experiment [7] addresses T4, Alpha-1B adrenergic receptor (Rattus norvegicus, UniProt P15823).
T4 sequence (P15823 whole entry): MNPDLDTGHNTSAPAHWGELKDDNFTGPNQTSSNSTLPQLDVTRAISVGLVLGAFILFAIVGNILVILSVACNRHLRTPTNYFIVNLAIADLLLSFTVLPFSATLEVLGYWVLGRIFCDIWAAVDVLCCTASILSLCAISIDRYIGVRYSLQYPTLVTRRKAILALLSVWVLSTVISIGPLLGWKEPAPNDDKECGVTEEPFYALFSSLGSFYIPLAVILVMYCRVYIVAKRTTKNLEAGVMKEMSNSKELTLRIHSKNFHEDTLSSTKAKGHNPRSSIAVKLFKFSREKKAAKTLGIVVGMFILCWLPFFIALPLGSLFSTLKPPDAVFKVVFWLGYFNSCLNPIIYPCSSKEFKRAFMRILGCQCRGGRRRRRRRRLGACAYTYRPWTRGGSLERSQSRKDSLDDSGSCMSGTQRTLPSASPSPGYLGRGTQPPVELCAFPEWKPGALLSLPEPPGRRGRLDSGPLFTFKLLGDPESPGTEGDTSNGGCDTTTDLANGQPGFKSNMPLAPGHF
Description: DRUGMATRIX: Alpha-1B adrenergic receptor radioligand binding (ligand: prazosin). The format is cell membranes, Wistar, Liver, Membrane. The conditions noted are these: Not Active = under 50% inhibition at 10 µM.

Experiment [8] is described as follows: DRUGMATRIX: Interleukin IL-1 radioligand binding (ligand: [125I] interleukin 1beta). The format is cell membranes, Membrane. Particulars: nih3t3; Not Active = under 50% inhibition at 10 µM.
Experiment [9] is described as follows: DRUGMATRIX: Glutamate, NMDA, Phencyclidine radioligand binding (ligand: [3H] TCP). It counts as cell membranes, Rattus norvegicus, Wistar, Cerebral cortex, Membrane. Particulars: Not Active = under 50% inhibition at 10 µM.
In experiment [10] the target is T5, Neutrophil elastase (Homo sapiens, UniProt P08246).
T5 sequence (P08246 whole entry): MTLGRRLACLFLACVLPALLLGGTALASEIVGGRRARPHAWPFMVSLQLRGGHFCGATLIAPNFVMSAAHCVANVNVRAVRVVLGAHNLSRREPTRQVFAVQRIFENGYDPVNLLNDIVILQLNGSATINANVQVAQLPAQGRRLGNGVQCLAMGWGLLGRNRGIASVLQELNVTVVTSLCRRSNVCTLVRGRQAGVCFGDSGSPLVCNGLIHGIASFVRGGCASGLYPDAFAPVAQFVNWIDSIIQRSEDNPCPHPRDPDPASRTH
The format is tissue-based.

In experiment [11] the target is Adenosine receptor A2a (Homo sapiens, UniProt P29274). Nature of the experiment: DRUGMATRIX: Adenosine A2A radioligand binding (ligand: […]). It counts as cell membranes, HEK293, Membrane. The conditions noted are these: hek293; Not Active = under 50% inhibition at 10 µM.
Chain of Adenosine receptor A2a (P29274 whole entry): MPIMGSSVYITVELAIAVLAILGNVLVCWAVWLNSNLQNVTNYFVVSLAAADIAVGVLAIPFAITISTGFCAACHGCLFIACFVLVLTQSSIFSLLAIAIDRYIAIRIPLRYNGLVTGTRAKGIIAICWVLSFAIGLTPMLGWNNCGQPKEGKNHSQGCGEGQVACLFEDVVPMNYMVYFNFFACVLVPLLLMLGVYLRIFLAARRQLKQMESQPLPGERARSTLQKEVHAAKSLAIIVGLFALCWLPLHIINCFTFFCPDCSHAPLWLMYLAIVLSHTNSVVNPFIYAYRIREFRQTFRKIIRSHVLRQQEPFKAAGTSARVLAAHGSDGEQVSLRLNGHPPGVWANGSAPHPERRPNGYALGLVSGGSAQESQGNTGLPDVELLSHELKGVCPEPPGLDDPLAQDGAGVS

In the case of `CC(C)(C)NCC(O)c1cc(O)cc(O)c1` (centres undefined) [TERBUTALINE], the IC50 result in experiment [1], in experiment [2], in experiment [3], in [4], in experiment [5] and in [6] was “Not Active” each time. Also, the IC50 entry in experiment [7], in [8], in experiment [9], in experiment [10] and in experiment [11] was “Not Active” each time. Also, the Ki entry in experiment [1], in experiment [8] and in experiment [9] was “Not Active” each time.

Consider `CN(C)[C@@H]1C(O)=C(C(N)=O)C(=O)[C@@]2(O)C(O)=C3C(=O)c4c(O)cccc4[C@@](C)(O)[C@H]3C[C@@H]12` [TETRACYCLINE], for which the IC50 result in experiment [1], in [2], in experiment [3], in experiment [4], in [5] and in experiment [6] was “Not Active” each time. For the same compound, the IC50 result in [7], in experiment [8], in [9], in experiment [10] and in [11] was “Not Active” in each case. Also, the Ki result in [1], in experiment [8] and in [9] was “Not Active” in each case.

With `c1ccc2[nH]c(-c3cscn3)nc2c1` [THIABENDAZOLE], the IC50 result in [1], in experiment [2], in experiment [3], in [4], in experiment [5] and in experiment [6] was “Not Active” each time. Moreover, the IC50 entry in [7], in experiment [8], in experiment [9], in experiment [10] and in experiment [11] was “Not Active” in each case. Also, the Ki result in experiment [1], in experiment [8] and in experiment [9] was “Not Active” in each case.

As for `Cc1ccc(C(=O)C(C)CN2CCCCC2)cc1` (centres undefined) [TOLPERISONE], the IC50 result in experiment [1], in experiment [2], in experiment [3], in experiment [4], in experiment [5] and in experiment [6] was “Not Active” throughout. Besides, the IC50 entry in [7], in experiment [8], in [9], in experiment [10] and in experiment [11] was “Not Active” throughout. Besides, the Ki entry in [1], in experiment [8] and in experiment [9] was “Not Active” throughout.

Consider `NC(CO)(CO)CO` [TROMETHAMINE], for which the IC50 entry in experiment [1], in experiment [2], in experiment [3], in [4], in experiment [5] and in experiment [6] was “Not Active” each time. In addition, the IC50 result in experiment [7], in [8], in experiment [9], in experiment [10] and in experiment [11] was “Not Active” throughout. Further, the Ki result in experiment [1], in experiment [8] and in experiment [9] was “Not Active” throughout.

`CN1[C@@H]2CC[C@H]1C[C@@H](OC(=O)c1c[nH]c3ccccc13)C2` [TROPISETRON]: the IC50 result in experiment [1] was “Not Active”; in experiment [2], “Not Active”; in experiment [3] (read-out: IC50) it was 324 nM; in experiment [4] it was “Not Active”; in [5], “Not Active”; in [6], “Not Active”. Further, the IC50 entry in experiment [7], in [8], in [9], in experiment [10] and in [11] was “Not Active” each time. The Ki entry in [1] is “Not Active”; in [3] (read-out: Ki), 54 nM; in experiment [8], “Not Active”; in experiment [9] it was “Not Active”.

For `COc1cc(C(=O)NC2CCCNC2)cc(OC)c1OC` (centres undefined) [TROXIPIDE], the IC50 result in experiment [1], in experiment [2], in experiment [3], in experiment [4], in experiment [5] and in experiment [6] was “Not Active” throughout. The IC50 result in experiment [7], in experiment [8], in experiment [9], in [10] and in experiment [11] was “Not Active” in each case. Moreover, the Ki entry in experiment [1], in experiment [8] and in [9] was “Not Active” in each case.
